Literature values, collected in patent publication US20030216431A1, “Ophthalmic pharmaceutical compositions and methods for treating ocular inflammation” (priority 2002, published 2003).

Conditions: for daily dosage causing serious retinopathy: systemic use in patients, nearly all instances

Structure (SMILES)	time to onset of definite retinopathy (dosage slightly greater than 250 mg chloroquine diphosphate per day)	daily dosage causing serious retinopathy	duration of intake without clinically evident retinopathy (not exceeding 250 mg diphosphate or 200 mg sulfate per day)
CCN(CC)CCCC(C)Nc1ccnc2cc(Cl)ccc12 (stereo not shown) [chloroquine diphosphate, Quinoline, 7-chloro-4-((4-(diethylamino)-1-methylbutyl)amino)-, diphosphate]	one to three	more than 250 mg per day	–
CCN(CC)CCCC(C)Nc1ccnc2cc(Cl)ccc12.O=S(=O)(O)O (stereo not shown) [chloroquine sulfate, Quinoline, 7-chloro-4-((4-(diethylamino)-1-methylbutyl)amino)-, sulfate]	–	> 200 mg per day	–
CCN(CC)CCCC(C)Nc1ccnc2cc(Cl)ccc12 (stereo not shown) [chloroquine, Chloroquine]	–	–	nine
